Assay results reported in US20240109900A1, “AZABICYCLIC SHP2 INHIBITORS” (IRBM S.P.A., priority 2021, published 2024).

Key:
[1] = biological target: SHP-2 enzyme (Met1-Leu525) (Homo sapiens (Human), UniProt Q06124); assay: SHP2 inhibition enzymatic assay; format: biochemical; conditions: 0.5 nM SHP-2 activated by 500 nM IRS1 peptide, 75 μM DiFMUP substrate; read-out: SHP2wt-IC50
Method in brief: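 SHP-2 (Met1-Leu525), 0.5 nM, activated with 500 nM IRS1 bis-phosphopeptide, preincubated 30 min with compounds in HEPES pH 7.2 buffer with 5 mM DTT. 75 μM DiFMUP added for 30 min at room temperature, stopped with bpV; fluorescence read. IC50 from four-parameter logistic fit of % inhibition.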

[2] = tested on: ERK phosphorylation in KYSE-520 cells; assay: Phospho-ERK cellular assay; format: cell-based; conditions: Homo sapiens, KYSE-520, 2 h, KYSE-520 cells, 2 h at 37° C., phospho-ERK1/2 (Thr202/Tyr204) TR-FRET; read-out: PERK IC50
Method in brief: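 TR-FRET read-out of ERK1/2 Thr202/Tyr204 phosphorylation was taken after overnight antibody incubation at room temperature. Before that, KYSE-520 cells were treated 2 h at 37 °C with compound dilutions and lysed 30 min. Percent inhibition relative to vehicle and cell-free wells was fitted four-parametrically to give IC50.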

Chain of SHP-2 enzyme (Met1-Leu525) (Q06124 1-525): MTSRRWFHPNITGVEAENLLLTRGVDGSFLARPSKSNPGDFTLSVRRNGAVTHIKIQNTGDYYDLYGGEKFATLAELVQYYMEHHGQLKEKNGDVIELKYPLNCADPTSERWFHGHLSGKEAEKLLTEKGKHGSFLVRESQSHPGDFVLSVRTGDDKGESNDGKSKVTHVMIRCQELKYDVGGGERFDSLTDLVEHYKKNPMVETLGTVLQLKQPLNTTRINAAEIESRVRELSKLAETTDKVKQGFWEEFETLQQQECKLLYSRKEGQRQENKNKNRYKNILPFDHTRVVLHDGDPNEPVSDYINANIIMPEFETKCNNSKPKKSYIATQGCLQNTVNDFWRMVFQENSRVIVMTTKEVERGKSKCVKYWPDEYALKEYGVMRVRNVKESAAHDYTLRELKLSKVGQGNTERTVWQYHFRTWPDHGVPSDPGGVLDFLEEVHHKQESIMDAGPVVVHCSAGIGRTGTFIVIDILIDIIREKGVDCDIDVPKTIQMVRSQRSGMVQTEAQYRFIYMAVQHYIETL

IC50 [1]	IC50 [2]	SMILES
500 to 3000 nM	< 1000 nM	Cc1cc([C@@]2(CN)[C@@H]3CCN(c4cnc5c(-c6cc(F)cc7ncccc67)n[nH]c5n4)C[C@@H]32)no1 [Example 130, ((1S,6R,7S)-3-(3-(7-fluoroquinolin-5-yl)-1H-pyrazolo[3,4-b]pyrazin-6-yl)-7-(5-methylisoxazol-3-yl)-3-azabicyclo[4.1.0]heptan-7-yl)methanamine]
< 500 nM	< 1000 nM	NC[C@]1(c2ccccc2F)[C@@H]2CCN(c3cnc4c(-c5cccn6nccc56)n[nH]c4n3)C[C@@H]21 [Example 131, ((1S,6R,7R)-7-(2-fluorophenyl)-3-(3-(pyrazolo[1,5-a]pyridin-4-yl)-1H-pyrazolo[3,4-b]pyrazin-6-yl)-3-azabicyclo[4.1.0]heptan-7-yl)methanamine]
< 500 nM	< 1000 nM	NC[C@]1(c2ccccc2F)[C@@H]2CCN(c3cnc4c(-c5ccnc6c(F)cccc56)n[nH]c4n3)C[C@@H]21 [Example 132, ((1S,6R,7R)-7-(2-fluorophenyl)-3-(3-(8-fluoroquinolin-4-yl)-1H-pyrazolo[3,4-b]pyrazin-6-yl)-3-azabicyclo[4.1.0]heptan-7-yl)methanamine]
< 500 nM	< 1000 nM	Cc1cc([C@@]2(CN)[C@@H]3CCN(c4cnc5c(-c6ccc(C(F)F)c7ncccc67)n[nH]c5n4)C[C@@H]32)no1 [Example 133, ((1S,6R,7S)-3-(3-(8-(difluoromethyl)quinolin-5-yl)-1H-pyrazolo[3,4-b]pyrazin-6-yl)-7-(5-methylisoxazol-3-yl)-3-azabicyclo[4.1.0]heptan-7-yl)methanamine]
< 500 nM	< 1000 nM	Cc1cc([C@@]2(CN)[C@@H]3CCN(c4cnc5c(-c6ccc(C(C)O)c7ncccc67)n[nH]c5n4)C[C@@H]32)no1 (stereo partly drawn) [Example 134, 1-(5-(6-((1S,6R,7S)-7-(aminomethyl)-7-(5-methylisoxazol-3-yl)-3-azabicyclo[4.1.0]heptan-3-yl)-1H-pyrazolo[3,4-b]pyrazin-3-yl)quinolin-8-yl)ethan-1-ol]
> 3000 nM	> 5000 nM	NC[C@]1(c2ccccc2F)[C@@H]2CCN(c3ncc(Sc4ccnc(N)c4Cl)n4cncc34)C[C@@H]21 [Example 135, 4-((8-((1S,6R,7R)-7-(aminomethyl)-7-(2-fluorophenyl)-3-azabicyclo[4.1.0]heptan-3-yl)imidazo[1,5-a]pyrazin-5-yl)thio)-3-chloropyridin-2-amine]
< 500 nM	< 1000 nM	NC[C@]1(c2ccccc2F)[C@@H]2CCN(c3cnc4c(-c5ccn6nccc6c5)n[nH]c4n3)C[C@@H]21 [Example 136, ((1S,6R,7R)-7-(2-fluorophenyl)-3-(3-(pyrazolo[1,5-a]pyridin-5-yl)-1H-pyrazolo[3,4-b]pyrazin-6-yl)-3-azabicyclo[4.1.0]heptan-7-yl)methanamine]
< 500 nM	< 1000 nM	CC(C)(O)c1ccc(-c2n[nH]c3nc(N4CC[C@@H]5[C@H](C4)[C@@]5(CN)c4ccccc4F)cnc23)c2cccnc12 [Example 137, 2-(5-(6-((1S,6R,7R)-7-(aminomethyl)-7-(2-fluorophenyl)-3-azabicyclo[4.1.0]heptan-3-yl)-1H-pyrazolo[3,4-b]pyrazin-3-yl)quinolin-8-yl)propan-2-ol]
< 500 nM	< 1000 nM	CC(C)Oc1ccc(-c2n[nH]c3nc(N4CC[C@@H]5[C@H](C4)[C@@]5(CN)c4ccccc4F)cnc23)c2cccnc12 [Example 138, ((1S,6R,7R)-7-(2-fluorophenyl)-3-(3-(8-isopropoxyquinolin-5-yl)-1H-pyrazolo[3,4-b]pyrazin-6-yl)-3-azabicyclo[4.1.0]heptan-7-yl)methanamine]
< 500 nM	< 1000 nM	NC[C@]1(c2ccccc2F)[C@@H]2CCN(c3cnc4c(-c5ccc(C6CC6)c6ncccc56)n[nH]c4n3)C[C@@H]21 [Example 139, ((1S,6R,7R)-3-(3-(8-cyclopropylquinolin-5-yl)-1H-pyrazolo[3,4-b]pyrazin-6-yl)-7-(2-fluorophenyl)-3-azabicyclo[4.1.0]heptan-7-yl)methanamine]
